Holding throughout (experiment): growth of human tumour cells (NCI), 48 h
In assay [1] the test system is ACHN renal.
Assay [2] relates to CAKI-1 renal.
In assay [3] the test system is HL-60(TB) leukemia.
The test system of assay [4] is HOP-92 NSCLC.
Assay [5] deals with HT29 colon.
The test system of assay [6] is IGROV1 ovarian.
Assay [7] has as its system MCF7 breast.
Assay [8] concerns SK-MEL-28 melanoma.
Assay [9] concerns DLD-1 colon.
Assay [10] concerns DMS 273 small cell lung.

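96-well plates; 48 h exposure; 5 concentrations. Endpoints by linear interpolation between flanking doses. Not reached: highest tested concentration assigned. GI50 marks 50% less growth. The concentration for full growth arrest is given as TGI.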

Regarding `COc1c(O)ccc2c1CN1CCc3cc4c(cc3C1C2)OCO4` (stereo unspecified), the TGI was more than 79 µM in [1]; more than 100 µM in [2]; more than 100 µM in assay [3]; more than 100 µM in [4]; more than 100 µM in [5]; more than 100 µM in assay [6]. Also, the values for the TGI in assay [7] and in assay [8] were more than 63.1 µM and more than 100 µM, respectively.

Regarding `Cc1cc(S(=O)(=O)Nc2nnc(-c3ccccc3)c(-c3ccccc3)n2)c(SCc2ccccc2)cc1Cl`, the GI50 in [1] was 17.6 µM; in [2] it was 25.5 µM; in assay [3], 34.1 µM; in assay [4], 18.8 µM; in [5], 22.4 µM; in assay [6] it was 37.3 µM. The GI50 is 24 µM in [7] and 22.6 µM in assay [8]. The TGI in assay [1] was 32.6 µM; in [2], 42.5 µM; in assay [3] it was 67.2 µM; in assay [4], 47.1 µM; in assay [5], 51.7 µM; in [6] it was more than 100 µM. Besides, the TGI in [7] stood at 54.2 µM; in [8], 40.7 µM.

For `O=C1C(=O)c2ccccc2C(O)=C1C(CCc1ccccc1)C1=C(O)c2ccccc2C(=O)C1=O`, the TGI in [1] was more than 100 µM; in assay [2], more than 100 µM; in assay [3], 15.4 µM; in assay [4], more than 100 µM; in assay [5] it was more than 100 µM; in [6], more than 100 µM. The TGI in assay [7] and in assay [8] was more than 100 µM each time.

Regarding `CN(C)c1ccc2c3c(c(=O)oc2c1)CCC3`, the TGI in assay [1], in assay [2], in assay [3], in [4], in assay [5] and in assay [6] was more than 100 µM in each case. Moreover, the TGI in [7] and in assay [8] was more than 100 µM in each case.

Regarding `O=C(Nc1ncc(Cc2ccccc2Cl)s1)c1ccc2c(c1)OCCO2`, the GI50 in assay [1] is 0.776 µM; in assay [2], 0.306 µM; in [3], 0.396 µM; in assay [4], 4.08 µM; in assay [5], 0.616 µM; in [6] it was 0.498 µM. The figures for the GI50 in [7] and in [8] were 0.32 µM and 1.66 µM, respectively. For the same compound, the TGI in assay [1] was more than 65.1 µM; in assay [2], more than 47.9 µM; in assay [4], more than 81.8 µM; in assay [5], more than 48.5 µM; in assay [6], more than 57.8 µM; in assay [7] it was more than 100 µM. In [8], this compound had a TGI of more than 59 µM.

In the case of `CCOC(=O)C(C)c1cc(C2(C)OCCO2)c(C)o1` (stereo unspecified), the TGI was more than 100 µM in assay [1]; more than 100 µM in assay [9]; more than 100 µM in [10]; more than 100 µM in assay [3]; 97.7 µM in assay [4]; more than 100 µM in [6].

In the case of `C[C@]12CC[C@@H]3c4ccc(O)cc4CC[C@H]3[C@@H]1CC[C@@H]2NS(=O)(=O)Cc1ccc(Cl)cc1`, the GI50 in assay [1] is 2.94 µM; in [2] it was 3.06 µM; in [3], 3.26 µM; in assay [4], 2.13 µM; in assay [5], 3.34 µM; in [6] it was 2.99 µM. The GI50 in assay [7] is 2.92 µM; in [8], 2.01 µM. The TGI worked out at 11.5 µM in assay [1]; 11.2 µM in assay [2]; 14.5 µM in assay [3]; 7.24 µM in assay [4]; 10.8 µM in assay [5]; 10.4 µM in [6]. The figures for the TGI in assay [7] and in assay [8] were 9.62 µM and 4.22 µM, respectively.

As for `N.N.NC(CS)C(=O)[O-].NC(CS)C(=O)[O-].[Pt+4]` (stereo unspecified), the GI50 in assay [1], in [9], in [10], in [3], in assay [4] and in assay [5] was more than 50 µM throughout. For the same compound, the GI50 in assay [6] and in assay [8] was more than 50 µM each time. For the same compound, the TGI in assay [1], in assay [9], in [10], in [3], in assay [4] and in [5] was more than 50 µM each time. In addition, the TGI in assay [6] and in assay [8] was more than 50 µM each time.

In the case of `COc1ccc2[nH]c(Cl)c(/C=C3/C(=O)N(C)c4ccccc43)c2c1`, the GI50 in [1] is more than 100 µM; in assay [2], more than 100 µM; in [3], more than 100 µM; in [4], 91.3 µM; in assay [5], more than 100 µM; in assay [6] it was more than 100 µM. The GI50 in assay [7] and in assay [8] was more than 100 µM each time. In addition, the TGI in assay [1], in [2], in [3], in [4], in assay [5] and in assay [6] was more than 100 µM throughout. Also, the TGI in assay [7] and in assay [8] was more than 100 µM each time.

On to `S=C(N/N=C/c1ccccn1)Nc1ccccn1`, for which the GI50 in assay [1] is 1.56 µM; in assay [2] it was 1.31 µM; in assay [3], 0.316 µM; in assay [4], 0.478 µM; in assay [5], 3.1 µM; in assay [6], 3.17 µM. Further, the GI50 was 0.472 µM in assay [7] and 2.51 µM in assay [8]. The TGI in assay [1] was more than 100 µM; in assay [2] it was more than 100 µM; in assay [3], 1.25 µM; in assay [4], 6.23 µM; in assay [5] it was more than 100 µM; in assay [6], more than 100 µM. The TGI in assay [7] and in assay [8] was more than 100 µM throughout.

In the case of `CCN(CC)CCOc1ccc(/C=C2\CC3C4CC=C5C[C@@H](N6CCCC6)CC[C@]5(C)C4CC[C@]3(C)[C@H]2O)cc1OC` (stereo partly specified), the GI50 in assay [1] was 5.94 µM; in assay [2] it was 16.3 µM; in assay [3], 13.8 µM; in assay [4], 8.14 µM; in assay [5], 2.39 µM; in assay [6], 8.91 µM. For the same compound, the figures for the GI50 in [7] and in [8] were 4.45 µM and 20.5 µM, respectively. The TGI was 26.2 µM in [1]; 46.1 µM in assay [2]; 35.2 µM in assay [3]; 32.7 µM in assay [4]; more than 100 µM in assay [5]; more than 27.6 µM in [6]. In addition, the results for the TGI in assay [7] and in assay [8] were more than 59 µM and more than 65.7 µM, respectively.
